± gives the expanded uncertainty stated by the source.
Legend:
[1] = DTA
[2] = Molar enthalpy of transition or fusion; settings: DSC

SMILES	Triple point temperature ([1]; Crystal)	Molar enthalpy of transition or fusion ([2]; Crystal)	Triple point temperature ([1]; Crystal 1)	Triple point temperature ([1]; Crystal 2)	Molar enthalpy of transition or fusion ([2]; Crystal 2)
CCCCCCCCCCCCCCCC(=O)O [hexadecanoic acid]	336.34 ± 0.63 K	12.7 ± 0.574 kcal/mol	–	–	–
CCCCCCCCCCCCCCO [1-tetradecanol]	–	–	311.39 ± 0.39 K	310.45 ± 0.41 K	11.4 ± 0.526 kcal/mol
CCCCCCCCCCCC(=O)O [dodecanoic acid]	–	–	318.29 ± 0.41 K	317.9 ± 0.6 K	8.51 ± 0.335 kcal/mol
CCCCCCCCCCCCCCCCCCO [1-octadecanol]	–	–	331.82 ± 0.49 K	330.97 ± 0.39 K	15.6 ± 0.908 kcal/mol
CCCCCCCCCCCCCCCCO [1-hexadecanol]	–	–	323.17 ± 0.41 K	322.27 ± 0.49 K	13.5 ± 0.765 kcal/mol
CCCCCCCCCCCCCC(=O)O [tetradecanoic acid]	–	–	328.13 ± 0.48 K	327.65 ± 0.48 K	10.5 ± 0.43 kcal/mol
